In ChEMBL document CHEMBL1141382, “Studies leading to potent, dual inhibitors of Bcl-2 and Bcl-xL” (J Med Chem, 2007):
pEC50, pIC50, pKi: −log10 of the molar value.

Columns and labels:
Bcl-2-like protein 1 [1] = biological target: T1, Bcl-2-like protein 1 (Homo sapiens, UniProt Q07817); assay: Displacement of Bad-derived peptide from Bcl-xL by FPA in presence of 10% human serum
[2] = biological target: Apoptosis regulator Bcl-2 (Homo sapiens, UniProt P10415); assay: Displacement of Bax-derived peptide from Bcl2 by fluorescence polarization assay
FL5.12 = assay: Reversal of cytokine withdrawal protection in IL3 dependent Bcl-xL overexpressing mouse FL5.12 cells in presence of 3% FBS; assay type: functional
Bcl-2-like protein 1 [3] = biological target: T1, Bcl-2-like protein 1; assay: Displacement of Bad-derived peptide from Bcl-xL by fluorescence polarization assay
[4] = Reversal of cytokine withdrawal protection in IL3 dependent Bcl-xL overexpressing mouse FL5.12 cells

T1 sequence (Q07817 whole entry): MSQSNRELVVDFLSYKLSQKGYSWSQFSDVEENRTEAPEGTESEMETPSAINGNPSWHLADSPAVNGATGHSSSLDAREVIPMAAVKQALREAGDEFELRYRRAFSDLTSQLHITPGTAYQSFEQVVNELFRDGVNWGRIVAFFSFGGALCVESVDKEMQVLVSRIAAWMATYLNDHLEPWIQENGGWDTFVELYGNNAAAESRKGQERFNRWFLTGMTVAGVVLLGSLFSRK
Sequence of Apoptosis regulator Bcl-2 (P10415 whole entry): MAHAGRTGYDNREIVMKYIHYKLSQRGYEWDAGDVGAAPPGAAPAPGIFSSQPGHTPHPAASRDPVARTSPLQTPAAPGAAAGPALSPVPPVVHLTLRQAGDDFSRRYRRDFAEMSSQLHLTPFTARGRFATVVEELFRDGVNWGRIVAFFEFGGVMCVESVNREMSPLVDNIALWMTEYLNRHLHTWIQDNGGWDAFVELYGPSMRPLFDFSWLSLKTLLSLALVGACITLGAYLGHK

SMILES	pIC50 (Bcl-2-like protein 1 [1])	pKi [2]	pEC50 (FL5.12)	pKi (Bcl-2-like protein 1 [3])	pEC50 [4]	pIC50 (Bcl-2-like protein 1 [3])
CN(C)CC[C@H](CSc1ccccc1)Nc1ccc(S(=O)(=O)NC(=O)c2ccc(N3CCN(Cc4ccccc4-c4ccccc4Cl)CC3)cc2)cc1[N+](=O)[O-]	> 7.22	> 9.00	5.60	> 9.30		
CN(C)CC[C@H](CSc1ccccc1)Nc1ccc(S(=O)(=O)NC(=O)c2ccc(N3CCC(C)(C)CC3)cc2)cc1[N+](=O)[O-]	6.44		5.29		6.33	
CN(C)CC[C@H](CSc1ccccc1)Nc1ccc(S(=O)(=O)NC(=O)c2ccc(N3CCN(Cc4ccccc4-c4cccc(Cl)c4)CC3)cc2)cc1[N+](=O)[O-]	6.85	7.77	5.55	> 9.30		
CN(C)CC[C@H](CSc1ccccc1)Nc1ccc(S(=O)(=O)NC(=O)c2ccc(N3CCN(Cc4ccccc4-c4ccc(C(F)(F)F)cc4)CC3)cc2)cc1[N+](=O)[O-]	> 7.22	> 9.00	6.92	> 9.30		
CN(C)CC[C@H](CSc1ccccc1)Nc1ccc(S(=O)(=O)NC(=O)c2ccc(N3CCN(Cc4ccccc4-c4ccc(S(C)(=O)=O)cc4)CC3)cc2)cc1[N+](=O)[O-]	> 7.22	> 9.00	5.17			8.04
CN(C)CC[C@H](CSc1ccccc1)Nc1ccc(S(=O)(=O)NC(=O)c2ccc(N3CCN(Cc4ccccc4-c4ccc(-c5ccccc5)cc4)CC3)cc2)cc1[N+](=O)[O-]	7.00	> 9.00	6.92	9.00		
CN(C)CC[C@H](CSc1ccccc1)Nc1ccc(S(=O)(=O)NC(=O)c2ccc(N3CCN(Cc4ccccc4-c4ccc(F)cc4)CC3)cc2)cc1[N+](=O)[O-]	> 7.22	> 9.00	6.15	> 9.30		
